According to BindingDB's records for PubMed 1328199 (University of Chicago, 1992):
Bridge positions count the residues as written; N and C are the ends. Square brackets hold non-standard residues; d marks the D form. Peptide text beside a SMILES is read from it. * marks the point of attachment. X1 = CC(O)[C@H](CO)N*

Key:
[1] = biological target: Somatostatin receptor type 2 (Mus musculus, UniProt P30875)
[2] = biological target: Somatostatin receptor type 3 (Mus musculus, UniProt P30935)
Chain of Somatostatin receptor type 3 (P30935 whole entry): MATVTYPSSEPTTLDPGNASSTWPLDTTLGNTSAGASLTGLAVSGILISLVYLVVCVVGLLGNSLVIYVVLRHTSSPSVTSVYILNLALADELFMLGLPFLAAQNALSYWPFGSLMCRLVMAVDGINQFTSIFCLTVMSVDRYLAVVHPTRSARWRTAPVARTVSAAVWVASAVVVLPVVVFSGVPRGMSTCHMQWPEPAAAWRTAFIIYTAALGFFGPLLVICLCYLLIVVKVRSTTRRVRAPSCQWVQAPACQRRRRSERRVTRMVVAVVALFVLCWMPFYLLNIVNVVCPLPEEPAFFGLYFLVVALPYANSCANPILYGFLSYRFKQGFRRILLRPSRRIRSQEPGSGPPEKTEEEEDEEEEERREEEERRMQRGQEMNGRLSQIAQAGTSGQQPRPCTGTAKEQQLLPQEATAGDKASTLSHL

Chain of Somatostatin receptor type 2 (P30875 whole entry): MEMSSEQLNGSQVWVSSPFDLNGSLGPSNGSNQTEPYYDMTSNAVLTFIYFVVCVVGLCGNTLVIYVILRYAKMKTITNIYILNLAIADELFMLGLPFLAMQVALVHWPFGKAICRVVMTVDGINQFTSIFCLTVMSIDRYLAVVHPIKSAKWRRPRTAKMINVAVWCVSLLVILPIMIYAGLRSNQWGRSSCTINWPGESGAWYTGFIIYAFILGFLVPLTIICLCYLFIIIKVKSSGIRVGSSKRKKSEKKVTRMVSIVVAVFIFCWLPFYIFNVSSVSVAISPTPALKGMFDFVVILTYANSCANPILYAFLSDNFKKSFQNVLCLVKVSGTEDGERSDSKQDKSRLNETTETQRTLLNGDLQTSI

SMILES | Ki [1] [nM] | Ki [2] [nM]
CC(O)[C@H](CO)NC(=O)[C@@H]1CSSC[C@H](NC(=O)[C@H](N)Cc2ccccc2)C(=O)N[C@@H](Cc2ccccc2)C(=O)N[C@H](Cc2c[nH]c3ccccc23)C(=O)N[C@@H](CCCCN)C(=O)N[C@@H]([C@@H](C)O)C(=O)N1 (some centres undefined) (H-[dF]CF[dW]KTC-X1; disulfide 2-7) | 0.5 | 150
CC(C)[C@@H]1NC(=O)[C@H](CCCCN)NC(=O)[C@@H](Cc2c[nH]c3ccccc23)NC(=O)[C@H](Cc2ccc(O)cc2)NC(=O)[C@H](C)N(C)C(=O)[C@H](Cc2ccccc2)NC1=O [CAS_3086456] | 0.07 | 268
